Laboratory results from patent publication US10722520B2, “Heterocyclic compounds and their use in preventing or treating bacterial infections” (MUTABILIS, priority 2016, dated 2020).
Where a name gives a salt, the structure may show the parent alone. Read-outs that look alike come from different tables or passages of the source.

Tests used:
AmpC (P99) = AmpC (P99) (Enterobacter cloacae, UniProt P05364); experiment: biochemical
TEM-1 = TEM-1 (Escherichia coli, UniProt P62593)
OXA-1 = OXA-1 (Escherichia coli, UniProt P13661)
OXA-48 = OXA-48 (Klebsiella pneumoniae, UniProt Q6XEC0)
SHV-1 = SHV-1 (Klebsiella pneumoniae, UniProt P0AD64)
OXA-15 = OXA-15 (Pseudomonas aeruginosa, UniProt Q51574); experiment: biochemical
K. pneumoniae BAA-1898 = experiment: MIC of compound alone, broth microdilution; format: cell-based; conditions: Klebsiella pneumoniae, BAA1898; strain BAA-1898; compound alone; read-out: MIC compounds of the invention alone
How it was run: (§1)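 Log-phase bacteria were diluted to a final 5×10^5 cfu/mL in cation-adjusted Mueller-Hinton broth and incubated 16-20 h at 35° C in ambient air. MIC was taken as the lowest concentration preventing growth, judged visually.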

E. cloacae P99 = experiment: MIC of compound alone, broth microdilution; format: cell-based; conditions: Enterobacter cloacae; strain P99; compound alone; read-out: MIC compounds of the invention alone
How it was run: as §1

E. coli 190317 = experiment: MIC of compound alone, broth microdilution; format: cell-based; conditions: Escherichia coli; strain 190317; compound alone; read-out: MIC compounds of the invention alone
How it was run: as §1

P. aeruginosa CIP107051 = experiment: MIC of compound alone, broth microdilution; format: cell-based; conditions: Pseudomonas aeruginosa; strain CIP107051; compound alone; read-out: MIC compounds of the invention alone
How it was run: as §1

K. pneumoniae 6299 = experiment: MIC of compound alone, broth microdilution; format: cell-based; conditions: Klebsiella pneumoniae; strain 6299; compound alone; read-out: MIC compounds of the invention alone
How it was run: as §1

CMY-37 = CMY-37 (Citrobacter freundii, UniProt P05193); conditions: read-out: IC50 β-lactamase CMY-37
OXA-11 = OXA-11 (Pseudomonas aeruginosa, UniProt Q06778)
KPC-2 = KPC-2 (Klebsiella pneumoniae, UniProt Q9F663)
AmpC (PAE) = AmpC (PAE) (Pseudomonas aeruginosa, UniProt P24735); experiment: biochemical
CTX-M-15 = CTX-M-15 (Escherichia coli, UniProt Q9EXV5)
[1] = class (C), nitrocefin 200 μM, 30-min pre-incubation, enzyme 0.2 nM

Compound | IC50 (AmpC (P99)) [nM] | IC50 (TEM-1) [nM] | IC50 (OXA-1) [nM] | IC50 (OXA-48) [nM] | IC50 (SHV-1) [nM] | IC50 (OXA-15) [nM] | MIC (K. pneumoniae BAA-1898) [µg/mL] | MIC (E. cloacae P99) [µg/mL] | MIC (E. coli 190317) [µg/mL] | MIC (P. aeruginosa CIP107051) [µg/mL] | MIC (K. pneumoniae 6299) [µg/mL] | IC50 (CMY-37) [nM] | IC50 (OXA-11) [nM] | IC50 (KPC-2) [nM] | IC50 (AmpC (PAE)) [nM] | IC50 (CTX-M-15) [nM] | IC50 (CMY-37; [1]) [nM]
NC(=O)Cc1ccn(C2=CC3CN(C2)C(=O)N3OS(=O)(=O)[O-])n1.[Na+] (stereo not drawn) [Example 45, sodium [3-[3-(2-amino-2-oxo-ethyl)pyrazol-1-yl]-7-oxo-1,6-diazabicyclo[3.2.1]oct-3-en-6-yl]sulfate] | 32 | 1.4 | 300 | 18 | 4.5 | 310 | 32 | 16 | 4 | > 32 | > 32 | 19 | 92 | 47 | 66 | 1.3 | –
O=C(N[C@@H]1CCNC1)c1ccn(C2=CC3CN(C2)C(=O)N3OS(=O)(=O)O)n1 (stereo partly drawn) [Example 83, [7-oxo-3-[3-[[(3R)-pyrrolidin-3-yl]carbamoyl]pyrazol-1-yl]-1,6-diazabicyclo[3.2.1]oct-3-en-6-yl]hydrogen sulfate] | 24 | 0.27 | 37 | 3.2 | 3.8 | 32 | 8 | 8 | 2 | > 32 | 32 | – | 24 | 7.9 | 230 | 0.64 | 63
O=C1N2CC(n3cc(C(F)(F)F)cn3)=CC(C2)N1OS(=O)(=O)[O-].[Na+] (stereo not drawn) [Example 22, sodium [7-oxo-3-[4-(trifluoromethyl)pyrazol-1-yl]-1,6-diazabicyclo[3.2.1]oct-3-en-6-yl]sulfate] | 17 | 0.21 | 180 | 4.6 | 1.1 | 9.1 | > 32 | > 32 | > 32 | > 32 | > 32 | 12 | 220 | 3 | 78 | 0.55 | –
O=C(N[C@H]1CCNC1)c1ccn(C2=CC3CN(C2)C(=O)N3OS(=O)(=O)O)n1 (stereo partly drawn) [Example 82, [7-oxo-3-[3-[[(3S)-pyrrolidin-3-yl]carbamoyl]pyrazol-1-yl]-1,6-diazabicyclo[3.2.1]oct-3-en-6-yl]hydrogen sulfate] | 32 | 0.58 | 110 | 3.2 | 4.9 | 47 | 32 | 4 | 2 | > 32 | 32 | – | 22 | 10 | 270 | 0.89 | 61
O=C1N2CC(n3ccc(F)n3)=CC(C2)N1OS(=O)(=O)[O-].[Na+] (stereo not drawn) [Example 18, sodium [7-oxo-3-(3-fluoropyrazol-1-yl)-1,6-diazabicyclo[3.2.1]oct-3-en-6-yl]sulfate] | 24 | 0.43 | 96 | 8.2 | 2.8 | 78 | 8 | 8 | 1 | > 32 | 4 | 18 | 46 | 13 | 43 | 0.65 | –
CC(=O)c1ccn(C2=CC3CN(C2)C(=O)N3OS(=O)(=O)[O-])n1.[Na+] (stereo not drawn) [Example 28, sodium (7-oxo-3-(3-acetylpyrazol-1-yl)-1,6-diazabicyclo[3.2.1]oct-3-en-6-yl) sulfate] | 10 | 0.37 | 64 | 3.8 | 2.2 | 30 | > 32 | > 32 | 16 | > 32 | > 32 | 37 | 29 | 4.8 | 200 | 0.5 | –
O=C(NCCO)c1ccn(C2=CC3CN(C2)C(=O)N3OS(=O)(=O)[O-])n1.[Na+] (stereo not drawn) [Example 11, sodium [3-[3-(2-hydroxyethylcarbamoyl)pyrazol-1-yl]-7-oxo-1,6-diazabicyclo[3.2.1]oct-3-en-6-yl]sulfate] | 27 | 1.2 | 95 | 7.7 | 7.6 | 78 | > 32 | 32 | 16 | > 32 | > 32 | 53 | 21 | 12 | 430 | 1.4 | –
O=C1N2CC(n3cc(CO)cn3)=CC(C2)N1OS(=O)(=O)[O-].[Na+] (stereo not drawn) [Example 71, sodium [3-[4-(hydroxymethyl)pyrazol-1-yl]-7-oxo-1,6-diazabicyclo[3.2.1]oct-3-en-6-yl]sulfate] | 19 | 1.4 | 450 | 12 | 9.6 | 55 | 16 | 16 | 4 | > 32 | 32 | 10 | 260 | 42 | 47 | 0.78 | –
NCCONC(=O)c1ccn(C2=CC3CN(C2)C(=O)N3OS(=O)(=O)O)n1 (stereo not drawn) [Example 46, [3-[3-(2-aminoethoxycarbamoyl)pyrazol-1-yl]-7-oxo-1,6-diazabicyclo[3.2.1]oct-3-en-6-yl]hydrogen sulfate] | 25 | 0.89 | 140 | 3.9 | 4 | 170 | 16 | 16 | 2 | > 32 | > 32 | – | 49 | 11 | 160 | 0.7 | 16
NS(=O)(=O)c1cnn(C2=CC3CN(C2)C(=O)N3OS(=O)(=O)[O-])c1.[Na+] (stereo not drawn) [Example 16, sodium [7-oxo-3-(4-sulfamoylpyrazol-1-yl)-1,6-diazabicyclo[3.2.1]oct-3-en-6-yl]sulfate] | 13 | 0.56 | 100 | 12 | 3.4 | 42 | 32 | 32 | 8 | > 32 | > 32 | 21 | 650 | 4.6 | 180 | 1.4 | –
O=C(Nc1ccn(C2=CC3CN(C2)C(=O)N3OS(=O)(=O)O)n1)c1cncs1 (stereo not drawn) [Example 77, [3-[3-[thiazole-5-carbonyl]amino]pyrazol-1-yl]-7-oxo-1,6-diazabicyclo[3.2.1]oct-3-en-6-yl]hydrogen sulfate] | 11 | 1.1 | 140 | 7.8 | 5.2 | 46 | > 32 | > 32 | > 32 | > 32 | > 32 | – | 16 | 11 | 58 | 1.5 | 7.1
CNCc1cn(C2=CC3CN(C2)C(=O)N3OS(=O)(=O)O)nn1 (stereo not drawn) [Example 60, [3-[4-(methylaminomethyl)triazol-1-yl]-7-oxo-1,6-diazabicyclo[3.2.1]oct-3-en-6-yl]hydrogen sulfate] | 27 | 0.35 | 130 | 1.2 | 2 | 8.1 | > 32 | 1 | 0.5 | 32 | > 32 | – | 130 | 14 | 330 | 0.73 | 68
